These results are taken from PubChem BioAssay AID977605 (Broad Institute, 2014).

Calls of active or inactive are those of the source.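 How the source made its calls: active means fitted curve reaches 40% activation below the top valid tested dose, in every test run; inconclusive means test runs disagree on the call; inactive means the rest, including effects opposite to the expected direction.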

One test can be described thus: E-selectin inducers in HUVECs, dose response, imaging, HUVEC, cherry-picked samples (AID 977605).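 Further: signal is the share of imaged cells scored positive for E-selectin.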 To be noted: HUVEC E-selectin immunostaining, at 16 µM (top of the series), percent of TNF-alpha response over vehicle.
In the case of `C[C@@H]1CN([C@H](C)CO)C(=O)c2cccc(NC(=O)c3ccncc3)c2O[C@@H]1CN(C)Cc1ccc(C(=O)Nc2ccccc2N)cc1`, the activation is 4.83% (inactive).

The same test, now with this note: HUVEC E-selectin immunostaining, at 18 µM (top of the series), percent of TNF-alpha response over vehicle.
Consider `CN1c2ccc(C#Cc3cccnc3)cc2[C@@H]2[C@@H](CCN2C(=O)C2CCC2)[C@H]1CO`, for which the activation was -0.065% (inactive).

Staying with this test, now noted: HUVEC E-selectin immunostaining, at 19.5 µM (top of the series), percent of TNF-alpha response over vehicle.
Regarding `CC(C)NC(=O)N(C)C[C@@H]1Oc2ccc(NC(=O)Cc3cn(C)c4ccccc34)cc2C(=O)N([C@H](C)CO)C[C@H]1C`, the activation is 0.047% (inactive). Regarding `C[C@H](CO)N1C[C@H](C)[C@@H](CN(C)Cc2ccc(Oc3ccccc3)cc2)Oc2ccc(NS(C)(=O)=O)cc2CC1=O`, the activation was 0.311% (inactive). Take `Cc1cccc(CC(=O)Nc2sc(C(C)C)cc2C(=O)N2CCOCC2)c1`: the activation is 0.007% (inactive). Regarding `CCCNC(=O)N(C)C[C@@H]1Oc2ncc(C3=CCCC3)cc2C(=O)N([C@H](C)CO)C[C@H]1C`, the activation is 0.267% (inactive). Turning to `COc1ccc(S(=O)(=O)Nc2ccc3c(c2)C(=O)N([C@H](C)CO)C[C@@H](C)[C@@H](CN(C)Cc2ccc(Cl)c(Cl)c2)O3)cc1`, the activation is -0.147% (inactive).

For the molecule `C[C@H](CO)N1C[C@H](C)[C@H](CN(C)C(=O)NC2CCCCC2)Oc2ccc(NS(=O)(=O)c3ccccc3)cc2C1=O`, the activation is -0.156% (inactive). As for `C[C@@H]1CN([C@H](C)CO)C(=O)c2cccc(NC(=O)Nc3ccc(F)cc3)c2O[C@H]1CN(C)C(=O)NC1CCCCC1`, the activation is 0.496% (inactive).

`CC(Sc1ncnc2sc(-c3ccccc3)cc12)C(=O)N1CCNC1=O` (configuration not stated): the activation was 0.007% (inactive). Turning to `COc1ccc(S(=O)(=O)Nc2ccc3c(c2)C(=O)N([C@@H](C)CO)C[C@H](C)[C@@H](CN(C)C(=O)Nc2cccc4ccccc24)O3)cc1`, the activation is -0.208% (inactive). In the case of `C[C@H]1CN([C@@H](C)CO)C(=O)Cc2cc(NC(=O)c3ccncc3)ccc2O[C@H]1CN(C)C(=O)Nc1ccc(C(F)(F)F)cc1`, the activation was 0.212% (inactive). The same measure, in the same setting: to `Cc1c(N(C)C(=O)COc2ccc3ccccc3c2)c(=O)n(-c2ccccc2)n1C` belongs -0.279% (inactive); to `Cc1noc(C)c1NC(=O)N(C)C[C@H]1Oc2ccc(NS(=O)(=O)c3cccs3)cc2C(=O)N([C@H](C)CO)C[C@H]1C`, -0.05% (inactive). Consider `COc1ccc(NC(=O)N(C)C[C@@H]2Oc3ccc(NC(=O)Cc4ccccc4)cc3CC(=O)N([C@H](C)CO)C[C@H]2C)cc1`, for which the activation was -0.201% (inactive). Regarding `C[C@H](CO)N1C[C@H](C)[C@H](CN(C)Cc2ccc(Oc3ccccc3)cc2)Oc2ccc(NC(=O)CCCCCC(=O)Nc3ccccc3N)cc2CC1=O`, the activation is 0.312% (inactive). Regarding `COc1cccc(NC(=O)C2C3C=CC4(O3)C2C(=O)N(CCCN2CCCCC2)C4C(=O)NC2CCCCC2)c1` (configuration not stated), the activation was 1.56% (inactive). As for `COc1ccc(-c2nc3cc(C)c(Br)c(C)n3c2CC(C)(C)C)cc1OC`, the activation is 0.052% (inactive).

Turning to `COc1ccc(NC(=O)c2cc(S(=O)(=O)N3CCCCC3)c[nH]2)cc1`, the activation is 0.335% (inactive). For the molecule `C[C@@H]1CN([C@@H](C)CO)C(=O)Cc2cc(NC(=O)Nc3ccc(F)cc3)ccc2O[C@H]1CN(C)S(=O)(=O)c1ccccc1`, the activation is -0.074% (inactive). With `C[C@@H]1CN([C@@H](C)CO)C(=O)Cc2cc(NC(=O)Nc3ccc4c(c3)OCO4)ccc2O[C@H]1CN(C)C`, the activation was -0.168% (inactive). The same measure, in the same setting: next, `C[C@H]1CN([C@@H](C)CO)C(=O)c2cc(NS(=O)(=O)c3cn(C)cn3)ccc2O[C@@H]1CN(C)Cc1ccncc1`: -0.214% (inactive).

Take `C[C@H]1CN([C@@H](C)CO)C(=O)c2cccc(NC(=O)c3cnccn3)c2O[C@H]1CN(C)Cc1ccc2c(c1)OCO2`: the activation is -0.117% (inactive). As for `C=CCN(C(=O)c1csnn1)C(C(=O)NC1CCCCC1)c1ccccc1` (configuration not stated), the activation was -0.215% (inactive).

Consider `C[C@@H]1CN([C@H](C)CO)C(=O)c2cccc(NC(=O)CCCCCC(=O)Nc3ccccc3N)c2O[C@@H]1CN(C)S(=O)(=O)c1cn(C)cn1`, for which the activation is -0.195% (inactive).

Take `COc1ccc(S(=O)(=O)N(C)C[C@H]2Oc3ccc(NC(=O)Nc4c(C)noc4C)cc3C(=O)N([C@H](C)CO)C[C@H]2C)cc1`: the activation was 0.58% (inactive). `C[C@@H]1CN([C@H](C)CO)C(=O)Cc2cc(NC(=O)C3CC3)ccc2O[C@@H]1CN(C)Cc1ccc2c(c1)OCO2`: the activation was -0.006% (inactive). On the same count and under the same terms, to `CC(C)NC(=O)N(C)C[C@@H]1Oc2ccc(NC(=O)CCCN(C)C)cc2C(=O)N([C@@H](C)CO)C[C@H]1C` belongs -0.112% (inactive); to `CCC(=O)c1ccc(OCC(=O)NNC(=O)c2cc(C)oc2C)cc1`, -0.03% (inactive). With `CC1CCCC(C)N1C(=O)CSc1nc2c(c(=O)n(C)c(=O)n2C)n1C` (configuration not stated), the activation is -0.005% (inactive). Regarding `CC(C)CC#Cc1ccc2c(c1)O[C@H](CN(C)C(=O)c1ccccc1)[C@H](C)CN([C@@H](C)CO)S2(=O)=O`, the activation was -0.183% (inactive). On to `C[C@@H]1CN([C@H](C)CO)C(=O)c2cc(NS(C)(=O)=O)ccc2O[C@@H]1CN(C)C(=O)Nc1ccccc1`, for which the activation is -0.094% (inactive). On the same count and under the same terms, to `C[C@@H]1CN([C@@H](C)CO)C(=O)Cc2cc(NC(=O)c3ccncc3)ccc2O[C@@H]1CN(C)S(C)(=O)=O` belongs 4.61% (inactive); to `COc1ccc(NC(=O)N(C)C[C@@H]2Oc3ccc(NC(=O)c4ccncc4)cc3CC(=O)N([C@H](C)CO)C[C@@H]2C)cc1`, -0.135% (inactive); to `COc1ccc(NC(=O)Nc2cccc3c2O[C@H](CN(C)Cc2ccc(C(=O)Nc4ccccc4N)cc2)[C@H](C)CN([C@H](C)CO)C3=O)cc1`, 1.32% (inactive). In the case of `C[C@@H]1CN([C@H](C)CO)C(=O)c2cccc(NS(=O)(=O)c3cn(C)cn3)c2O[C@@H]1CN(C)Cc1ccc(Cl)c(Cl)c1`, the activation is 0.02% (inactive). For `C[C@@H]1CN([C@@H](C)CO)C(=O)c2cccc(NC(=O)CCCCCC(=O)Nc3ccccc3N)c2O[C@H]1CN(C)S(=O)(=O)c1cn(C)cn1`, the activation was 0.292% (inactive).

Consider `CCn1c(CCC(=O)O)nc2cc(S(=O)(=O)N3CCOCC3)ccc21`, for which the activation is -0.184% (inactive). Same read-out and setting: to `CC(C)NC(=O)Nc1ccc2c(c1)C(=O)N([C@@H](C)CO)C[C@@H](C)[C@H](CN(C)Cc1ccc(C(=O)O)cc1)O2` belongs -0.098% (inactive); to `O=C(c1cncc(Br)c1)N1CCN(S(=O)(=O)c2ccccc2C(F)(F)F)CC1`, -0.01% (inactive). Regarding `Cc1ccc(NCc2n[nH]c(=S)n2-c2ccccc2)cc1`, the activation was 1.12% (inactive).

Regarding `COC(=O)c1noc(C)c1-c1ccnn1C(=O)c1ccc(C)cc1`, the activation is 0.122% (inactive). Consider `COc1ccccc1N(C(=O)c1snc(C(N)=O)c1N)C(C(=O)NCc1ccccc1)c1ccc(C)o1` (configuration not stated), for which the activation is -0.235% (inactive). In the case of `C[C@H]1CN([C@@H](C)CO)C(=O)c2cc(N(C)C)ccc2O[C@H]1CN(C)C(=O)Nc1ccc2c(c1)OCO2`, the activation was 2.2% (inactive). Same read-out and setting: next, `C[C@@H]1CN([C@H](C)CO)C(=O)c2cc(NC(=O)CCN3CCOCC3)ccc2O[C@@H]1CN(C)Cc1ccc(C(F)(F)F)cc1`: -0.028% (inactive); `C[C@@H]1CN([C@H](C)CO)C(=O)c2cccc(NS(C)(=O)=O)c2O[C@@H]1CN(C)C(=O)Nc1cccc2ccccc12`: -0.133% (inactive); `CCOC(=O)[C@]12CCCC=C1N(Cc1ccccc1)C(=O)[C@H](CC(=O)NCc1cccc3ccccc13)C2`: 0.13% (inactive).

Regarding `CC(C)NC(=O)Nc1ccc2c(c1)CC(=O)N([C@H](C)CO)C[C@H](C)[C@@H](CN(C)Cc1ccc(Oc3ccccc3)cc1)O2`, the activation is -0.055% (inactive).

Take `Cc1ccc(C(=O)NCC(=O)Nc2ccncc2)cc1C`: the activation is -0.08% (inactive). Consider `NS(=O)(=O)c1ccc(NC(=O)CCC(=O)N2CCOCC2)cc1`, for which the activation was 0.021% (inactive).

For the molecule `Cc1c(O)nc2ccccn2c1=O`, the activation was 0.171% (inactive). As for `Cc1ccc(OCc2nc(-c3cccnc3)no2)cc1C`, the activation is -0.108% (inactive). Regarding `C[C@H]1CN([C@@H](C)CO)C(=O)c2cccc(NC(=O)c3ccc(-c4nccs4)cc3)c2O[C@@H]1CN(C)Cc1ccc(Cl)c(Cl)c1`, the activation is 4.07% (inactive).

As for `CCOc1ccc(NC(=O)CNC(=O)c2ccc(OC)cc2)cc1`, the activation was 0.033% (inactive). On the same count and under the same terms, to `CC(C)NC(=O)Nc1ccc2c(c1)CC(=O)N([C@@H](C)CO)C[C@H](C)[C@@H](CN(C)Cc1ccc(C(=O)O)cc1)O2` belongs 0.001% (inactive); to `O=C1Nc2ccccc2C1Cc1ccccn1` (configuration not stated), -0.092% (inactive).

The same test, now with this note: HUVEC E-selectin immunostaining, at 21 µM (top of the series), percent of TNF-alpha response over vehicle.
`C[C@H]1CN([C@@H](C)CO)C(=O)Cc2cc(NC(=O)Nc3ccc4c(c3)OCO4)ccc2O[C@H]1CN(C)S(=O)(=O)c1cn(C)cn1`: the activation was -0.009% (inactive). `C[C@H]1CN([C@@H](C)CO)C(=O)c2cc(NC(=O)Cn3cnnn3)ccc2O[C@@H]1CN(C)Cc1ccc2c(c1)OCO2`: the activation is -0.073% (inactive). Consider `C[C@H]1CN([C@@H](C)CO)C(=O)c2cc(NC(=O)Cn3cnnn3)ccc2O[C@H]1CN(C)Cc1ccc(Oc2ccccc2)cc1`, for which the activation is 0.004% (inactive).

Consider `C[C@@H]1CN([C@H](C)CO)C(=O)Cc2cc(NC(=O)Nc3ccc(F)cc3)ccc2O[C@@H]1CN(C)S(=O)(=O)c1ccc(Cl)cc1`, for which the activation was 0.732% (inactive). In the case of `CC(C)NC(=O)N(C)C[C@H]1Oc2ccc(NC(=O)CCN3CCOCC3)cc2C(=O)N([C@H](C)CO)C[C@@H]1C`, the activation was 0.008% (inactive). As to `C[C@H]1CN([C@@H](C)CO)C(=O)c2cccc(NS(=O)(=O)c3cn(C)cn3)c2O[C@@H]1CN(C)C(=O)Nc1ccc(F)cc1`, the activation is -0.136% (inactive).
